# Key:
# TGF-β protein [1] = assay: TGF-β protein expression in TGF-β1-induced NHLF, western blotting (Example 4); assay type: cell-based, human; settings: uninduced control = 1, TGF-β1-only group A = 1.75
# Protocol: (§1) Normal Human lung fibroblasts (NHLF) were seeded into 6 cm culture dishes at a density of 2×10^5 cells/dish, comprising a control group and five experimental groups (6 dishes in total). The cells were cultured until the next day, and then the mediums were removed. Each group was respectively treated under the following conditions to conduct follow-up experiments: • (1) Control group: cells were cultured in a FGM-2 medium containing 1% serum for 36 hours; • (2) Group A: cells were cultured in a FGM-2 medium containing 1% serum and TGF-β1 (5 ng/ml) for 36 hours; • (3) Group B: cells were firstly cultured in a FGM-2 medium containing 1% serum and TGF-β1 (5 ng/ml) for 12 hours, and then compound (1) was added into the medium to provide a final concentration of 15 μg/ml; thereafter, the cells were cultured for another 24 hours; • (4) Group C: cells were firstly cultured in a FGM-2 medium containing 1% serum and TGF-β1 (5 ng/ml) for 12 hours, and then compound (1) was added into the medium to provide a final concentration of 30 μg/ml; thereafter, the cells were cultured for another 24 hours; • (5) Group D: cells were firstly cultured in a FGM-2 medium containing 1% serum and TGF-β1 (5 ng/ml) for 12 hours, and then compound (2) was added into the medium to provide a final concentration of 100 μg/ml; thereafter, the cells were cultured for another 24 hours; and • (6) Group E: cells were firstly cultured in a FGM-2 medium containing 1% serum and TGF-β1 (5 ng/ml) for 12 hours, and then compound (2) was added into the medium to provide a final concentration of 200 μg/ml; thereafter, the cells were cultured for another 24 hours.
# (§2) Thereafter, the proteins in the cells of each group were extracted, and the expressions of BMP-7 protein, TGF-β protein and p-smad2/3 protein in the NHLF cells of each group were measured with western blotting. The results of the control group served as the basis for calculating the relative expression levels of the other groups.
# BMP-7 protein [2] = assay: BMP-7 protein expression in TGF-β1-induced NHLF, western blotting (Example 4); assay type: cell-based, human; settings: uninduced control = 1, TGF-β1-only group A = 0.19
# Protocol: as §1, §2
# p-smad2/3 protein = p-smad2/3 protein expression in TGF-β1-induced NHLF, western blotting (Example 4); assay type: cell-based, human; settings: uninduced control = 1, TGF-β1-only group A = 1.42
# Protocol: as §1, §2
# BMP-7 protein [3] = assay: BMP-7 protein expression in TGF-β1-induced NHLF, western blotting (2-2); assay type: cell-based, human; settings: TGF-β1-only control group = 1
# Protocol: (§3) Normal Human lung fibroblasts (NHLF) were seeded into 6 cm culture dishes at a density of 2×10^5 cells/dish, comprising a control group and six experimental groups (7 dishes in total). The cells were cultured until the next day, and then the mediums were removed. Each group was respectively treated under the following conditions to conduct follow-up experiments: • (1) Positive control group: cells were cultured in a FGM-2 medium containing 1% serum and TGF-β1 (5 ng/ml) for 36 hours; • (2) Group I: cells were firstly cultured in a FGM-2 medium containing 1% serum and TGF-β1 (5 ng/ml) for 12 hours, and then compound (1) was added into the medium to provide a final concentration of 15 μg/ml; thereafter, the cells were cultured for another 24 hours; • (3) Group II: cells were firstly cultured in a FGM-2 medium containing 1% serum and TGF-β1 (5 ng/ml) for 12 hours, and then compound (1) was added into the medium to provide a final concentration of 25 μg/ml; thereafter, the cells were cultured for another 24 hours; • (4) Group III: cells were firstly cultured in a FGM-2 medium containing 1% serum and TGF-β1 (5 ng/ml) for 12 hours, and then compound (1) was added into the medium to provide a final concentration of 35 μg/ml; thereafter, the cells were cultured for another 24 hours; • (5) Group IV: cells were firstly cultured in a FGM-2 medium containing 1% serum and TGF-β1 (5 ng/ml) for 12 hours, and then the Pirfenidone was added into the medium to provide a final concentration of 100 μg/ml; thereafter, the cells were cultured for another 24 hours; • (6) Group V: cells were firstly cultured in a FGM-2 medium containing 1% serum and TGF-β1 (5 ng/ml) for 12 hours, and then the Pirfenidone was added into the medium to provide a final concentration of 250 μg/ml; thereafter, the cells were cultured for another 24 hours; and • (7) Group VI: cells were firstly cultured in a FGM-2 medium containing 1% serum and TGF-β1 (5 ng/ml) for 12 hours, and then the Pirfenidone was added into the medium to provide a final concentration of 500 μg/ml; thereafter, the cells were cultured for another 24 hours.
# (§4) Thereafter, the proteins in the cells of each group were extracted, and the expressions of type I collagen, BMP-7 protein and TGF-β protein in the NHLF cells of each group were measured with western blotting. The results of the control group served as the basis for calculating the relative expression levels of the other groups.
# TGF-β protein [4] = assay: TGF-β protein expression in TGF-β1-induced NHLF, western blotting (2-2); assay type: cell-based, human; settings: TGF-β1-only control group = 1
# Protocol: as §3, §4
# type I collagen = assay: Type I collagen expression in TGF-β1-induced NHLF, western blotting (2-2); assay type: cell-based, human; settings: TGF-β1-only control group = 1
# Protocol: as §3, §4
# [5] = tested on: Rat type II alveolar cell, L2 cell line; assay: Cell survival test (MTT analysis) under H2O2 oxidative stress; assay type: cell-based; settings: 24 hours, control group = 100%
# Protocol: The rat type II alveolar cell, L2 cell line (ATCC® CCL149™) were seeded into a 96-well plate at a density of 5×10^3 cells/well, 48 wells in total (separated into a control group and five experimental groups, 8 wells for each group). The cells were cultured until the next day, and then the mediums were removed. Each group was respectively treated under the following conditions to conduct follow-up experiments:
# (1) Control group: cells were cultured in a F-12K medium (Kaighn's Modification of Ham's F-12 Medium, ATCC® 30-2004™) for 24 hours;
# (2) Group 1: cells were cultured in a F-12K medium containing H2O2 (0.1 mM) for 24 hours;
# (3) Group 2: cells were cultured in a F-12K medium containing H2O2 (0.1 mM) and compound (1) (5 μg/ml) for 24 hours;
# (4) Group 3: cells were cultured in a F-12K medium containing H2O2 (0.1 mM) and N-acetylcysteine (NAC) (2 mM) for 24 hours;
# (5) Group 4: cells were cultured in a F-12K medium containing H2O2 (0.2 mM) and compound (1) (5 μg/ml) for 24 hours; and
# (6) Group 5: cells were cultured in a F-12K medium containing H2O2 (0.2 mM) and NAC (2 mM) for 24 hours.
# The mediums were removed after culturing was complete, and then each group was respectively treated under the following conditions: F-12K mediums containing 10% of 3-(4,5-Dimethylthiazol-2-yl)-2,5-diphenyltetrazolium bromide (MTT) were added into each well, and cultured for 1 hour. Thereafter, the mediums were removed, and a suitable amount of dimethyl sulfoxide (DMSO) was added into the wells. An Enzyme-Linked ImmunoSorbent Assay reader (ELISA reader) was then used for detecting the absorbance of each group at a wavelength of 595 nm (OD595nm). The average value of each group was respectively calculated (n=8), and then the result of the control group served as the basis for calculating the relative survival rates of the other groups.
# [6] = Group D: TGF-β1 5 ng/ml 12 h, then compound (2) 100 μg/ml 24 h
# [7] = Group E: TGF-β1 5 ng/ml 12 h, then compound (2) 200 μg/ml 24 h
# [8] = Group IV: TGF-β1 5 ng/ml 12 h, then Pirfenidone 100 μg/ml 24 h
# [9] = Group V: TGF-β1 5 ng/ml 12 h, then Pirfenidone 250 μg/ml 24 h
# [10] = Group VI: TGF-β1 5 ng/ml 12 h, then Pirfenidone 500 μg/ml 24 h
structure (smiles),measurement,setting,value
CCCCC(=O)c1ccccc1C(=O)O [compound (2)],Relative expression level (fold) TGF-β protein,TGF-β protein [1]; [6],0.46 fold
same,Relative expression level (fold) TGF-β protein,TGF-β protein [1]; [7],0.29 fold
same,Relative expression level (fold) BMP-7 protein,BMP-7 protein [2]; [6],0.11 fold
same,Relative expression level (fold) BMP-7 protein,BMP-7 protein [2]; [7],0.08 fold
same,Relative expression level (fold) p-smad2/3 protein,p-smad2/3 protein; [6],1.12 fold
same,Relative expression level (fold) p-smad2/3 protein,p-smad2/3 protein; [7],1.05 fold
"Cc1ccc(=O)n(-c2ccccc2)c1 [Pirfenidone, reference compound]",Relative expression level (fold) BMP-7 protein,BMP-7 protein [3]; [8],1.52 fold
same,Relative expression level (fold) BMP-7 protein,BMP-7 protein [3]; [9],1.43 fold
same,Relative expression level (fold) BMP-7 protein,BMP-7 protein [3]; [10],1.34 fold
same,Relative expression level (fold) TGF-β protein,TGF-β protein [4]; [8],0.67 fold
same,Relative expression level (fold) TGF-β protein,TGF-β protein [4]; [9],0.64 fold
same,Relative expression level (fold) TGF-β protein,TGF-β protein [4]; [10],0.67 fold
same,Relative expression level (fold) Type I collagen,type I collagen; [8],0.95 fold
same,Relative expression level (fold) Type I collagen,type I collagen; [9],0.57 fold
same,Relative expression level (fold) Type I collagen,type I collagen; [10],0.50 fold
"CC(=O)N[C@@H](CS)C(=O)O [NAC, N-acetylcysteine, reference compound]",Relative survival rate,"[5]; Group 3: H2O2 0.1 mM + NAC 2 mM, H2O2 0.1 mM alone = 38.9%",101.9%
same,Relative survival rate,[5]; Group 5: H2O2 0.2 mM + NAC 2 mM,83.1%

# Reference: patent publication US20170333391A1, “METHOD FOR DELAYING THE ONSET OF PULMONARY FIBROSIS OR TREATING PULMONARY FIBROSIS” (EVERFRONT BIOTECH INC., priority 2016, published 2017)
